Data reported in article PMC11579512, “Deoxybouvardin-glucoside induces apoptosis in non-small cell lung cancer cells by targeting EGFR/MET and AKT signaling pathway” (EXCLI Journal, 2024).
Read-outs that look alike come from different tables or passages of the source.

Tests used:
[1] = system: HaCaT cells
Protocol: (§1) All culture media were supplemented with FBS (10 %) and P/S (1 %), and the cells were grown at 37 °C in 5 % CO2.
(§2) The cells were treated with MTT and incubated for 2 h. The supernatants were removed, and the remaining formazan crystals were dissolved in DMSO before absorbance measurement at 570 nm using a Multiscan GO spectrophotometer (Thermo Fisher Scientific, Vantaa, Finland).

[2] = system: HCC827GR cells
Protocol: as §1, §2

[3] = system: HCC827 cells
Protocol: as §1, §2

[4] = system: HCC827GR cells; assay: Annexin V/7-AAD apoptosis, HCC827GR; format: cell-based, human; design: Early apoptosis / Total apopt / Dead / Live: unit not given here; conditions: for apoptotic cells (annexin V+): 48 h, background 0.92 %; for Late apoptosis/Dead / Early apoptosis / Total apopt / Dead / Live: HCC827GR
Protocol: (§3) HaCaT cells were grown in DMEM, whereas HCC827 and HCC827GR cells were grown in RPMI 1640. All culture media were supplemented with FBS (10 %) and P/S (1 %), and the cells were grown at 37 °C in 5 % CO2.
Apoptosis was measured using a Muse™ Annexin V & Dead Cell Kit (MCH100105, Merck Millipore). The fluorescent signal was analyzed with a Muse™ Cell Analyzer.

[5] = system: p-EGFR; assay: Immunoblot p-EGFR with NAC pretreatment, HCC827 and HCC827GR cells; format: cell-based, human; conditions: for p-EGFR protein Ratio: control = 1.00
Protocol: as §3
Cells were lysed in RIPA buffer, and protein concentration was determined using a Bio-Rad DC Protein Assay kit (Bio-Rad, Hercules, CA, USA). Protein samples from the cell lysates were resolved by sodium dodecyl sulfate-polyacrylamide gel electrophoresis and then transferred onto polyvinylidene fluoride membranes. The membranes were blocked with 3 % or 5 % skim milk and then incubated at 4 °C overnight with the indicated primary antibodies, followed by the corresponding horseradish peroxidase-conjugated secondary antibodies at RT for 2 h. Protein bands were visualized using western blotting luminol reagent solution and ImageQuant LAS 500 (GE Healthcare, Uppsala, Sweden). The density of the bands was quantified using ImageJ software (NIH, Bethesda, MD, USA).

SMILES: COc1ccc(C[C@H]2C(=O)N[C@@H](C)C(=O)N(C)[C@H]3Cc4ccc(cc4)Oc4cc(ccc4O[C@@H]4O[C@H](CO)[C@@H](O)[C@H](O)[C@H]4O)C[C@@H](C(=O)N[C@H](C)C(=O)N[C@@H](C)C(=O)N2C)N(C)C3=O)cc1 [DBG, deoxybouvardin glucoside]
- cell viability ([1]; 24 h, DBG 3 nM, replicate 1): 103.33%
- cell viability ([1]; 24 h, DBG 3 nM, replicate 2): 102.45%
- cell viability ([1]; 24 h, DBG 3 nM, replicate 3): 101.31%
- cell viability ([1]; 24 h, DBG 6 nM, replicate 1): 101.02%
- cell viability ([1]; 24 h, DBG 6 nM, replicate 2): 102.90%
- cell viability ([1]; 24 h, DBG 6 nM, replicate 3): 101.77%
- cell viability ([1]; 24 h, DBG 12 nM, replicate 1): 101.52%
- cell viability ([1]; 24 h, DBG 12 nM, replicate 2): 102.50%
- cell viability ([1]; 24 h, DBG 12 nM, replicate 3): 100.11%
- cell viability ([1]; 48 h, DBG 3 nM, replicate 1): 101.48%
- cell viability ([1]; 48 h, DBG 3 nM, replicate 2): 104.66%
- cell viability ([1]; 48 h, DBG 3 nM, replicate 3): 100.09%
- cell viability ([1]; 48 h, DBG 6 nM, replicate 1): 97.99%
- cell viability ([1]; 48 h, DBG 6 nM, replicate 2): 98.42%
- cell viability ([1]; 48 h, DBG 6 nM, replicate 3): 101.29%
- cell viability ([1]; 48 h, DBG 12 nM, replicate 1): 98.16%
- cell viability ([1]; 48 h, DBG 12 nM, replicate 2): 94.89%
- cell viability ([1]; 48 h, DBG 12 nM, replicate 3): 94.68%
- viability, in words ([1]; DBG 3, 6, 12 nM): did not affect
- cell viability ([2]; 24 h, DBG 3 nM, replicate 1): 88.10%
- cell viability ([2]; 24 h, DBG 3 nM, replicate 2): 92.63%
- cell viability ([2]; 24 h, DBG 3 nM, replicate 3): 91.95%
- cell viability ([2]; 24 h, DBG 6 nM, replicate 1): 81.14%
- cell viability ([2]; 24 h, DBG 6 nM, replicate 2): 86.21%
- cell viability ([2]; 24 h, DBG 6 nM, replicate 3): 84.35%
- cell viability ([2]; 24 h, DBG 12 nM, replicate 1): 77.73%
- cell viability ([2]; 24 h, DBG 12 nM, replicate 2): 74.83%
- cell viability ([2]; 24 h, DBG 12 nM, replicate 3): 73.57%
- IC50 ([2]; 48 h): 8.65 nM
- cell viability ([2]; 48 h, DBG 3 nM, replicate 1): 81.02%
- cell viability ([2]; 48 h, DBG 3 nM, replicate 2): 78.86%
- cell viability ([2]; 48 h, DBG 3 nM, replicate 3): 79.86%
- cell viability ([2]; 48 h, DBG 6 nM, replicate 1): 59.60%
- cell viability ([2]; 48 h, DBG 6 nM, replicate 2): 58.31%
- cell viability ([2]; 48 h, DBG 6 nM, replicate 3): 59.16%
- cell viability ([2]; 48 h, DBG 12 nM, replicate 1): 38.12%
- cell viability ([2]; 48 h, DBG 12 nM, replicate 2): 38.18%
- cell viability ([2]; 48 h, DBG 12 nM, replicate 3): 39.51%
- viability, in words ([2]; DBG 3, 6, 12 nM): suppressed the viability
- cell viability ([3]; 24 h, DBG 3 nM, replicate 1): 86.91%
- cell viability ([3]; 24 h, DBG 3 nM, replicate 2): 83.02%
- cell viability ([3]; 24 h, DBG 3 nM, replicate 3): 81.91%
- cell viability ([3]; 24 h, DBG 6 nM, replicate 1): 73.81%
- cell viability ([3]; 24 h, DBG 6 nM, replicate 2): 74.94%
- cell viability ([3]; 24 h, DBG 6 nM, replicate 3): 75.18%
- cell viability ([3]; 24 h, DBG 12 nM, replicate 1): 63.61%
- cell viability ([3]; 24 h, DBG 12 nM, replicate 2): 64.36%
- cell viability ([3]; 24 h, DBG 12 nM, replicate 3): 66.17%
- IC50 ([3]; 48 h): 8.6 nM
- cell viability ([3]; 48 h, DBG 3 nM, replicate 1): 82.82%
- cell viability ([3]; 48 h, DBG 3 nM, replicate 2): 81.25%
- cell viability ([3]; 48 h, DBG 3 nM, replicate 3): 79.60%
- cell viability ([3]; 48 h, DBG 6 nM, replicate 1): 60.78%
- cell viability ([3]; 48 h, DBG 6 nM, replicate 2): 58.53%
- cell viability ([3]; 48 h, DBG 6 nM, replicate 3): 60.97%
- cell viability ([3]; 48 h, DBG 12 nM, replicate 1): 37.02%
- cell viability ([3]; 48 h, DBG 12 nM, replicate 2): 36.88%
- cell viability ([3]; 48 h, DBG 12 nM, replicate 3): 36.42%
- viability, in words ([3]; DBG 3, 6, 12 nM): suppressed the viability
- apoptotic cells (annexin V+) ([4]; DBG 3 nM): 11.08%
- apoptotic cells (annexin V+) ([4]; DBG 6 nM): 25.58%
- apoptotic cells (annexin V+) ([4]; DBG 12 nM): 42.32%
- Late apoptosis/Dead ([4]; DBG 3 nM, mean of 3 samples, untreated 0.23): 0.23
- Early apoptosis ([4]; DBG 3 nM, mean of 3 samples, untreated 0.68): 10.85
- Total apopt ([4]; DBG 3 nM, mean of 3 samples, untreated 0.92): 11.08
- Dead ([4]; DBG 3 nM, mean of 3 samples, untreated 5.53): 0.05
- Live ([4]; DBG 3 nM, mean of 3 samples, untreated 93.55): 88.87
- Dead ([4]; DBG 3 nM, replicate 1): 0.05
- Early apoptosis ([4]; DBG 3 nM, replicate 1): 9.50
- Late apoptosis/Dead ([4]; DBG 3 nM, replicate 1): 0.15
- Live ([4]; DBG 3 nM, replicate 1): 90.30
- Total apopt ([4]; DBG 3 nM, replicate 1): 9.65
- Dead ([4]; DBG 3 nM, replicate 2): 0.05
- Early apoptosis ([4]; DBG 3 nM, replicate 2): 10.80
- Late apoptosis/Dead ([4]; DBG 3 nM, replicate 2): 0.25
- Live ([4]; DBG 3 nM, replicate 2): 88.90
- Total apopt ([4]; DBG 3 nM, replicate 2): 11.05
- Dead ([4]; DBG 3 nM, replicate 3): 0.05
- Early apoptosis ([4]; DBG 3 nM, replicate 3): 12.25
- Late apoptosis/Dead ([4]; DBG 3 nM, replicate 3): 0.30
- Live ([4]; DBG 3 nM, replicate 3): 87.40
- Total apopt ([4]; DBG 3 nM, replicate 3): 12.55
- Late apoptosis/Dead ([4]; DBG 6 nM, mean of 3 samples, untreated 0.23): 0.50
- Early apoptosis ([4]; DBG 6 nM, mean of 3 samples, untreated 0.68): 25.08
- Total apopt ([4]; DBG 6 nM, mean of 3 samples, untreated 0.92): 25.58
- Dead ([4]; DBG 6 nM, mean of 3 samples, untreated 5.53): 0.10
- Live ([4]; DBG 6 nM, mean of 3 samples, untreated 93.55): 74.32
- Dead ([4]; DBG 6 nM, replicate 1): 0.00
- Early apoptosis ([4]; DBG 6 nM, replicate 1): 24.55
- Late apoptosis/Dead ([4]; DBG 6 nM, replicate 1): 0.55
- Live ([4]; DBG 6 nM, replicate 1): 74.90
- Total apopt ([4]; DBG 6 nM, replicate 1): 25.10
- Dead ([4]; DBG 6 nM, replicate 2): 0.15
- Early apoptosis ([4]; DBG 6 nM, replicate 2): 25.60
- Late apoptosis/Dead ([4]; DBG 6 nM, replicate 2): 0.40
- Live ([4]; DBG 6 nM, replicate 2): 73.85
- Total apopt ([4]; DBG 6 nM, replicate 2): 26.00
- Dead ([4]; DBG 6 nM, replicate 3): 0.15
- Early apoptosis ([4]; DBG 6 nM, replicate 3): 25.10
- Late apoptosis/Dead ([4]; DBG 6 nM, replicate 3): 0.55
- Live ([4]; DBG 6 nM, replicate 3): 74.20
- Total apopt ([4]; DBG 6 nM, replicate 3): 25.65
- Late apoptosis/Dead ([4]; DBG 12 nM, mean of 3 samples, untreated 0.23): 10.45
- Early apoptosis ([4]; DBG 12 nM, mean of 3 samples, untreated 0.68): 31.87
- Total apopt ([4]; DBG 12 nM, mean of 3 samples, untreated 0.92): 42.32
- Dead ([4]; DBG 12 nM, mean of 3 samples, untreated 5.53): 0.13
- Live ([4]; DBG 12 nM, mean of 3 samples, untreated 93.55): 57.55
- Dead ([4]; DBG 12 nM, replicate 1): 0.15
- Early apoptosis ([4]; DBG 12 nM, replicate 1): 31.85
- Late apoptosis/Dead ([4]; DBG 12 nM, replicate 1): 10.85
- Live ([4]; DBG 12 nM, replicate 1): 57.15
- Total apopt ([4]; DBG 12 nM, replicate 1): 42.70
- Dead ([4]; DBG 12 nM, replicate 2): 0.15
- Early apoptosis ([4]; DBG 12 nM, replicate 2): 31.65
- Late apoptosis/Dead ([4]; DBG 12 nM, replicate 2): 10.50
- Live ([4]; DBG 12 nM, replicate 2): 57.70
- Total apopt ([4]; DBG 12 nM, replicate 2): 42.15
- Dead ([4]; DBG 12 nM, replicate 3): 0.10
- Early apoptosis ([4]; DBG 12 nM, replicate 3): 32.10
- Late apoptosis/Dead ([4]; DBG 12 nM, replicate 3): 10.00
- Live ([4]; DBG 12 nM, replicate 3): 57.80
- Total apopt ([4]; DBG 12 nM, replicate 3): 42.10
- p-EGFR protein/actin ([5]; HCC827, DBG 12 nM, control 0.90): 0.25
- p-EGFR protein Ratio ([5]; HCC827, DBG 12 nM): 0.27
- p-EGFR protein/actin ([5]; HCC827, NAC 4 mM + DBG 12 nM, control 0.90): 0.27
- p-EGFR protein Ratio ([5]; HCC827, NAC 4 mM + DBG 12 nM): 0.30
- p-EGFR protein/actin ([5]; HCC827GR, DBG 12 nM, control 0.93): 0.40
- p-EGFR protein Ratio ([5]; HCC827GR, DBG 12 nM): 0.43
- p-EGFR protein/actin ([5]; HCC827GR, NAC 4 mM + DBG 12 nM, control 0.93): 0.30
- p-EGFR protein Ratio ([5]; HCC827GR, NAC 4 mM + DBG 12 nM): 0.32
- DBG-decreased phosphorylation of EGFR with NAC ([5]; NAC 4 mM pretreatment, DBG 48 h): did not change
